Source: US8946280B2, “Plant growth regulating compounds” (Syngenta Participations AG, priority 2010, dated 2015)

Tests used:
[1] = tested on: Orobanche cumana Wallr. seeds (race F; seed lots IN146 and IN153); assay: Germination of preconditioned Orobanche cumana seeds on glass fiber filter paper in petri dishes; format: in vivo; conditions: mean, N = 5 × 100 seeds, re-transformed data; for Germination (%): seed lot IN146 raceF, examined 10 days later
Method: The effect of compounds of formula (I) on germination of Orobanche cumana Wallr. seeds was evaluated on glass fiber filter paper (GFFP) in petri dishes. Seeds were preconditioned at moisture and suitable temperature to become responsive to the specific chemical germination stimulants.
Test compounds were dissolved in DMSO (10 000 mg 1^−1) and stored at room temperature in a desiccators with desiccants. The stock solutions were dissolved with deionised water to the appropriate final test concentration.
Seeds of O. cumana race ‘F’ were collected from sunflower fields in Manzanilla (Seville, Spain) in 2006 (seed lot IN146) and 2008 (seed lot IN153) and stored at room temperature. To separate seeds from heavy organic debris, a modified sucrose floatation technique as described by Hartman & Tanimonure (Plant Disease (1991), 75, p. 494) was applied. Seeds were filled into a separation funnel and stirred in water. When seeds floated to the surface, the water fraction containing heavy debris was discarded. Seeds were re-suspended in 2.5M sucrose solution (specific gravity of 1.20) and heavy debris was allowed to settle down for 60 min. After removing debris, seeds were disinfected in 1% sodium hypochlorite solution and 0.025% (v/v) Tween 20 for 2 min. The seeds were decanted onto two layers of cheesecloth, rinsed with sterile deionised water and re-suspended in sterile deionised water. Two ml of the seed suspension containing approximately 150-400 seeds were spread evenly on two layers of sterile glass fiber filter paper disc ([…]) in Petri dishes (Ø9 cm). After wetting the discs with 3 ml sterile deionised water, petri dishes were sealed with parafilm. Seeds were incubated for 10 days at 20° C. in the dark for seed conditioning. The upper disc with conditioned seeds was briefly dried, transferred to a petri dish lined with a dry GFFP disc, and wetted with 6 ml of the appropriate test solution. The compounds of formula (I) were tested at concentrations of 0.001, 0.01, and 0.1 mg 1^−1. The strigolactone analogue GR24 (commercially available as a mixture of isomers) was included as positive control and 0.001% DMSO as negative control. All treatments were tested in five replicates. Seeds were re-incubated at 20° C. in the dark and examined for germination 10 days later. The radicles of germinated seeds were stained for 5 min with blue ink (MIGROS, Switzerland) in 5% acetic acid according to Long et al. (Seed Science Research (2008), 18, p. 125). After staining, seeds were scanned using a flatbed scanner with an optical resolution of 1200 dpi (PULSTEK, OpticPro ST28) or photographed using a camera stand mounted with a digital SLR camera (Canon EOS 5D). Germination of 100 seeds per replicate was evaluated on digital images. Seeds were considered germinated when the radicle protruded from the seed coat. SAS statistical software package version 9.1 was used for analysis of variance (GLM procedure) and multiple comparisons of treatment means (Sidak t-test) based on arcsine transformed percentage germination data.

[2] = Table 8, seed lot IN153, race F, 0.001 mg l^−1
[3] = Table 8, seed lot IN153, race F, 0.01 mg l^−1
[4] = Table 8, seed lot IN153, race F, 0.1 mg l^−1
[5] = Table 7, seed lot IN153, race F, 0.001 mg l^−1
[6] = Table 7, seed lot IN153, race F, 0.01 mg l^−1
[7] = Table 7, seed lot IN153, race F, 0.1 mg l^−1

Structure (SMILES)	Germination % at concentration of 0.001 mg l^−1 [1, 2]	Germination % at concentration of 0.01 mg l^−1 [1, 3]	Germination % at concentration of 0.1 mg l^−1 [1, 4]	also measured
CC1=CC(O/C=C2/C(=O)N(C)C3c4ccccc4C[C@H]23)OC1=O (stereo in doubt) [Compound P3, 1-Methyl-(3aR*,8bS*,5′R*)-3-[1-(4-Methyl-5-oxo-2,5-dihydro-furan-2-yloxy)-meth-(E)-ylidene]-3,3a,4,8b-tetrahydro-1H-indeno[1,2-b]pyrrol-2-one]	–	–	–	melting point: 130 to 135 °C; Germination (%) ([1]; 0.001 mg l^−1): 68%; Germination (%) ([1]; 0.01 mg l^−1): 82.4%; Germination (%) ([1]; 0.1 mg l^−1): 84%
CC(=O)OC1c2ccccc2C2C1C(=COC1C=C(C)C(=O)O1)C(=O)N2C(=O)OC(C)(C)C (mixture of isomers) [A24*]	44.8 def %	86.4 abcd %	96.8 a %	–
C=CCN1C(=O)C(=COC2C=C(C)C(=O)O2)C2Cc3ccccc3C21 (mixture of isomers) [A29*]	90.3 abc %	94.5 abc %	94.0 abc %	–
CC1=CC(O/C=C2/C(=O)N(Cc3ccc(F)cc3)C3c4ccccc4CC23)OC1=O (stereo not shown) [A27*, (3E)-1-[(4-fluorophenyl)methyl]-3-[(4-methyl-5-oxo-2H-furan-2-yl)oxymethylene]-4,8b-dihydro-3aH-indeno[1,2-b]pyrrol-2-one]	7.7 fg %	63.3 abcde %	80.1 abcde %	–
CC1=CC(OC=C2C(=O)N(C(=O)OC(C)(C)C)C3c4ccccc4C(F)C23)OC1=O (mixture of isomers) [A25*]	–	–	–	Germination % at concentration of 0.001 mg l^−1 [1, 5]: 1.2 c %; Germination % at concentration of 0.01 mg l^−1 [1, 6]: 14.3 c %; Germination % at concentration of 0.1 mg l^−1 [1, 7]: 86.3 ab %
COc1ccc2c(c1)CC1C(=COC3C=C(C)C(=O)O3)C(=O)NC21 (stereo not shown) [Compound A4]	–	–	–	Germination % at concentration of 0.001 mg l^−1 [1, 5]: 98.9 a %; Germination % at concentration of 0.01 mg l^−1 [1, 6]: 95.8 ab %; Germination % at concentration of 0.1 mg l^−1 [1, 7]: 99.0 a %
CC1=CC(OC=C2C(=O)N(CC#N)C3c4ccccc4CC23)OC1=O (mixture of isomers) [A28*]	42.4 ef %	89.2 abc %	96.3 ab %	–
CC(=O)N1C(=O)C(=COC2C=C(C)C(=O)O2)C2Cc3ccccc3C21 (stereo not shown) [Compound A22]	87.6 abc %	95.3 ab %	95.7 ab %	–
CC1=CC(OC=C2C(=O)NC3c4c(C)cccc4CC23)OC1=O (stereo not shown) [Compound A8]	–	–	–	Germination % at concentration of 0.001 mg l^−1 ([1]; Table 6, seed lot IN146, race F, 0.001 mg l^−1): 72.9 bc %; Germination % at concentration of 0.01 mg l^−1 ([1]; Table 6, seed lot IN146, race F, 0.01 mg l^−1): 84.4 abc %; Germination % at concentration of 0.1 mg l^−1 ([1]; Table 6, seed lot IN146, race F, 0.1 mg l^−1): 69.9 bc %
